The text below walks through data of US20240417410A1, “TRICYCLIC COMPOUNDS FOR THE TREATMENT OF CANCER” (Hoffmann-La Roche Inc., priority 2023, published 2024).

One may read the IC50 as the concentration that gives 50% inhibition. As usually defined, the IC20 is the concentration needed for an effect of 20%. What is called clearance is the rate of elimination divided by the concentration. The low end stands for inefficient removal, the high end for efficient removal. In general, AUC(0-t) refers to the area under the concentration-time curve up to a stated or last time point. A high value points to high exposure. For orientation: Cmax means the highest concentration seen after dosing.

The target in one data set is KRAS G12C-BRAF complex (Homo sapiens (Human), UniProt P01116+P62937, G12C). Description: KRAS-BRAF with CYPA (500 nM) interaction assay (TR-FRET, Example 136). The following applies: KRAS G12C-BRAF disruption. In kind it is biochemical.
Another data set relates to AGS cells (KRAS G12D). Description: Cell viability assay (Cell Counting Kit-8, 3-day). Type of data set: cell-based, human. Particulars: Homo sapiens, 72 h, 72 hrs incubation. An outline of the steps:
(§1)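 Read-out is CCK-8 absorbance (OD450 minus OD650, 2 hrs after reagent), reflecting NADPH after 72 hrs of compound exposure in 0.5% DMSO. Seeding density was 5,000 cells/well for NCI-H358 and 2,000 for AGS and SW620. IC50 derived by 4-parameter sigmoidal fitting.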
In general terms: Formazan colour is commonly taken as a measure of viable cells.

Another data set relates to SW620 cells (KRAS G12V). Description: Cell viability assay (Cell Counting Kit-8, 3-day). Type of data set: cell-based, human. The following applies: Homo sapiens, SW-620; SW620, 72 hrs incubation. Put shortly: as §1
The subject of data set [1] is NCI-H358 cells (KRAS G12C). Description: Cell viability assay (Cell Counting Kit-8, 3-day). Type of data set: cell-based, human. The following applies: Homo sapiens, NCI-H358, 72 h, NCI-H358, 72 hrs incubation. Put shortly: as §1
Data set [2] has as its system phosphorylation of ERK, KRAS G12C in NCI-H358 cells. In words: pERK inhibition assay. Type of data set: cell-based. The following applies: Homo sapiens, NCI-H358, 4 h. An outline of the steps:
(§2)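 Cells in RPMI-1640 with 10% FBS were plated overnight (30,000/well H358, 20,000 AGS, 30,000 SW620) and treated 4 h with compounds at 0.5% DMSO. After formaldehyde fixation and methanol permeabilization, pERK was detected by in-cell ELISA with HRP secondary and TMB (OD450); IC50 from 4-parameter fit.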

In data set [3] the test system is phosphorylation of ERK, KRAS G12D in AGS cells. In words: pERK inhibition assay. In kind it is cell-based. Particulars: Homo sapiens, AGS, 4 h. An outline of the steps:
as §2

For data set [4], the system named is phosphorylation of ERK, KRAS G12V in SW620. Description: pERK inhibition assay. Type of data set: cell-based. Particulars: Homo sapiens, SW-620, 4 h, SW620 cells. Put shortly: as §2
Another data set concerns the target WT KRAS-BRAF complex (Homo sapiens (Human), UniProt P01116+P62937). Description: WT KRAS-BRAF with CYPA interaction assay (TR-FRET). Type of data set: biochemical. The following applies: WT KRAS. The method, then:
(§3) In this example, TR-FRET was used to measure the compound or compound-CYPA dependent disruption of the KRAS G12V-BRAF complex to assess inhibition efficacy. The IC50 ratio between WT KRAS/HRAS/NRAS and KRAS G12V mutant was calculated as selective index, which indicated tolerability and safety profile. Disruption of WT KRAS/HRAS/NRAS-BRAF complex by compounds was detected respectively. In assay buffer containing 25 mM HEPES (PH-7.4,4-(2-hydroxyethyl)-1-piperazineethanesulfonic acid, Thermo, 15630080), 0.002% Tween20, 0.1% BSA, 100 mM NaCl, 5 mM MgCl2, 10 μM GMPPNP (Guanosine 5′-[β,γ-imido]triphosphate trisodium salt hydrate, Sigma, G0635), tagless CYPA and GMPPNP loaded 6His-RAS proteins, and GST-BRAF^RBD were mixed in a well of a 384-well assay plate at final concentrations of 50 nM, 6.25 nM and 1 nM, respectively. Compound was present in plate wells as a 16-point 3-fold dilution series starting at a final concentration of 10 μM and incubated for 3 hours. A mixture of MAb Anti-6His-XL665 (Cisbio, 61HISXLB) and Mab anti-GST-TB cryptate (Cisbio, 61GSTTLB) was then added at a final concentration of 6.67 nM and 0.21 nM, respectively, and the plate was incubated for an additional 1.5 hours. TR-FRET signal was read on a PHERstar FSX microplate reader (Ex320 nm, Em 665/615 nm). Compounds that facilitate disruption of the RAS-BRAF complex were identified as those eliciting a decrease in the TR-FRET ratio relative to DMSO control wells.
On the technique in general: In TR-FRET formats the signal depends on donor and acceptor labels being close together.

A further data set concerns the target WT HRAS-BRAF complex (Homo sapiens (Human), UniProt P01112+P62937). In words: WT HRAS-BRAF with CYPA interaction assay (TR-FRET). Type of data set: biochemical. Particulars: WT HRAS. As to the method:
as §3

The target in a further data set is hERG potassium channel (Homo sapiens (Human), UniProt Q12809). In words: hERG potassium channel assay (manual patch clamp, CHO cells). Particulars: 34° C., manual patch, CHO cells. In kind it is cell-based. The method, then: The purpose of the test was to screen compounds for the activity on hERG channels as a non-clinical cardiac safety evaluation.
Advanced hERG experiments were performed at near-physiological temperature (34° C.) by HEKA EPC10 manual patch system (heka elektronik, EPC10 amplifier). The CHO cells (B′SYS GmbH) stably transfected hERG channel were initially held at −80 mV, depolarized to voltages between −40 mV (100 ms) to 20 mV (500 ms) to activate the hERG outward currents, and then repolarized to −40 mV (500 ms) to record the hERG tail currents, with an interpulse interval of 15s. The recording environment included: Extracellular solution (in mM): 150 NaCl, 4 KCl, 1.2 CaCl2), 1 MgCl2 and 10 HEPES; pH adjusted to 7.2-7.4 with 5 M NaOH; Intracellular solution (in mM): 125 KCl, 10 NaCl, 5 EGTA, 10 HEPES, 0.1 Na2GTP and 5 MgATP; pH adjusted to 7.2 with 1 M KOH. Current inhibitions in the presence of more than 4 concentrations in quadruplicate were used to fit hERG IC50 by Graphpad prism V8.0.
(hERG is a cardiac potassium channel; its block is linked to QT prolongation.)

Data set [5] is described as follows: Single dose pharmacokinetics (PK) study in female BALB/c mice. Type of data set: in vivo, mouse. The following applies: female, BALB/c, mouse, plasma, female BALB/c mice. As to the method: The purpose of this study was to determine the pharmacokinetics of selected compounds following single intravenous bolus or oral gavage administration in female BALB/c mice. Briefly, two groups of female BALB/c mice (available from Shanghai Lingchang Biotechnology Co., Ltd) (N=3/group) were treated with a single dose of compound intravenously at 3 mg/kg (IV) or orally at 30 mg/kg (PO). Blood samples were collected at 5 min (only for IV), […], 30 min, 1 h, 2 h, 4 h, 7 h and 24 h post-dose. Blood samples were placed on ice until centrifugation to obtain plasma samples. The concentration of compound in plasma samples was determined using LC-MS/MS method. The pharmacokinetic parameters were calculated by non-compartmental analysis.

For a further data set, the target named is KRAS G12V-BRAF complex (Homo sapiens (Human), UniProt P01116+P62937, G12V). Description: KRAS G12V-BRAF with CYPA interaction assay (TR-FRET, selectivity test, Example 132). In kind it is biochemical. As to the method: as §3
Another data set deals with human hepatocytes. Description: Human hepatocyte stability assay. The following applies: 1 μM compound, human hepatocytes 1×10^6 cells/mL. In kind it is in vitro ADME. The method, then: The hepatocyte stability assay measures the rate of disappearance of a compound from incubations with cryopreserved suspension hepatocytes from human. Positive controls, including Midazolam, Raloxifene and Dextromethorphan, are included in every experiment. Incubations consist of 1 μM tested compound and suspension of human hepatocytes (1×10^6 cells/mL) in supplemented Williams' E Medium with 10% FBS and 0.5% Penicillin-streptomycin. The hepatocyte suspension was incubated with intermittent shaking 900 rpm at 37° C., in a 5% CO2 incubator. The reaction was stopped by adding methanol containing internal standard (2 μM Tolbutamide) at 2, 10, 20, 40, 60 and 120 minutes after compound addition, depletion of the parent compound was monitored by LC-MS/MS analysis.

For the next data set, the target named is WT NRAS-BRAF complex (Homo sapiens (Human), UniProt P01111+P62937). In words: WT NRAS-BRAF with CYPA interaction assay (TR-FRET). Type of data set: biochemical. Particulars: WT NRAS. The method, then:
as §3

Sequence of KRAS G12C-BRAF complex (P01116-2 other isoform, or with tags, fused parts or gaps G12C): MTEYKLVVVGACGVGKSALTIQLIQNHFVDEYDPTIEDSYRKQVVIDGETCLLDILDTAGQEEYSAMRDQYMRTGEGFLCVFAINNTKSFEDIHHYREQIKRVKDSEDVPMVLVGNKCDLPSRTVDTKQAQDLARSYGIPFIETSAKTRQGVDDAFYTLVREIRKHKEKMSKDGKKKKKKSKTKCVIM
Sequence of KRAS G12C-BRAF complex (P62937 whole entry): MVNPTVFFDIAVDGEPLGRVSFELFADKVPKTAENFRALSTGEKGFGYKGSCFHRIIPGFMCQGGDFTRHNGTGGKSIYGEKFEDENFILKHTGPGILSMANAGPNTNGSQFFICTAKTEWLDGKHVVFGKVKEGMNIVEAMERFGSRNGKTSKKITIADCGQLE
Sequence of hERG potassium channel (Q12809 whole entry): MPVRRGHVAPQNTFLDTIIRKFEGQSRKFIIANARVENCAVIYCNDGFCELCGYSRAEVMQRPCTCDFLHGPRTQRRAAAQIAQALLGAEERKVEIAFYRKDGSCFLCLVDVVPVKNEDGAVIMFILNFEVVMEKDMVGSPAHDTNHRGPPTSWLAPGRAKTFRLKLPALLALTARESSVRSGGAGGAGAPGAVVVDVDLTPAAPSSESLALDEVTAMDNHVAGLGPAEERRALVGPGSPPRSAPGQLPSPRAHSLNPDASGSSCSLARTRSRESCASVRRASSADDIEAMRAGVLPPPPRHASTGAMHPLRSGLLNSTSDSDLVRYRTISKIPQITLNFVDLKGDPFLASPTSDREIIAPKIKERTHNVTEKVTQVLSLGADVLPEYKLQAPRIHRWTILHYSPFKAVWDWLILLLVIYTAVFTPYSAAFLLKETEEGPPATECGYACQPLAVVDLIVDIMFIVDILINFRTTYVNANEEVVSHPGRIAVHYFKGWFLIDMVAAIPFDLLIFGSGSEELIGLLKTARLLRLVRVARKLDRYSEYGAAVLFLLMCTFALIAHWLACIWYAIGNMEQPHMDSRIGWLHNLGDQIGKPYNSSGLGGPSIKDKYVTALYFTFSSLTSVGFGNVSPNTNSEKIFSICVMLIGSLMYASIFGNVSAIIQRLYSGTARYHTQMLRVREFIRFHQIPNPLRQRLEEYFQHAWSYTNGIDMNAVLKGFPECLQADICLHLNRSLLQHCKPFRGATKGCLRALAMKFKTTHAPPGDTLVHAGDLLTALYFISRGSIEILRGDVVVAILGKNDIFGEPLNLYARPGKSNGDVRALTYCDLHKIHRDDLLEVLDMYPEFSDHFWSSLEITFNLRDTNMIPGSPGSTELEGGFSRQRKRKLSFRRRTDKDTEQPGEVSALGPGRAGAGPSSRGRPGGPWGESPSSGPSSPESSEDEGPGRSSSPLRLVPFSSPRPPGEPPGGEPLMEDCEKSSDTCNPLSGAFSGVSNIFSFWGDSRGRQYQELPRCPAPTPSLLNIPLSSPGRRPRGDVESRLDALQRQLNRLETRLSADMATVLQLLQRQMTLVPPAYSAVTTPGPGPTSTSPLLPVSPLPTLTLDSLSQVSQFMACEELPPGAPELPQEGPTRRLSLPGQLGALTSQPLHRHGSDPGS
Sequence of KRAS G12V-BRAF complex (P01116-2 other isoform, or with tags, fused parts or gaps G12V): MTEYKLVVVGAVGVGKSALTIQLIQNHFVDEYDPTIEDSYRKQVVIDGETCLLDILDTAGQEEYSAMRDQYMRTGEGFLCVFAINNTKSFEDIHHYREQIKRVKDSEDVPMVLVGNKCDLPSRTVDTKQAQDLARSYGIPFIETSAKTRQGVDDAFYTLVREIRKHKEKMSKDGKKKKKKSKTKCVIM
Sequence of KRAS G12V-BRAF complex (P62937 whole entry): as the sequence (P62937 whole entry) above
Sequence of WT NRAS-BRAF complex (P01111 whole entry, looked up): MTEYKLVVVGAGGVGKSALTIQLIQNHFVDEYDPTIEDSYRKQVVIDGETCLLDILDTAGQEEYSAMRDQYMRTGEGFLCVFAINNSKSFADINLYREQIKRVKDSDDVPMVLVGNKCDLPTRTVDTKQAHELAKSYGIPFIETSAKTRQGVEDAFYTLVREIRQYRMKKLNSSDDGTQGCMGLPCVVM
Sequence of WT NRAS-BRAF complex (P62937 whole entry, looked up): as the sequence (P62937 whole entry) above
Sequence of WT KRAS-BRAF complex (P01116-2 whole entry, looked up): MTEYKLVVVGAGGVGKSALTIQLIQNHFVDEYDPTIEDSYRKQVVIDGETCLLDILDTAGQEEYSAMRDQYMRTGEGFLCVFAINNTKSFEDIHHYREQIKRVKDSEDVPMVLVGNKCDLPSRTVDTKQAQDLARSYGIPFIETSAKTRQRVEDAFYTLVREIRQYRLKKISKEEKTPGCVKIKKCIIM
Sequence of WT KRAS-BRAF complex (P62937 whole entry, looked up): as the sequence (P62937 whole entry) above
Sequence of WT HRAS-BRAF complex (P01112 whole entry, looked up): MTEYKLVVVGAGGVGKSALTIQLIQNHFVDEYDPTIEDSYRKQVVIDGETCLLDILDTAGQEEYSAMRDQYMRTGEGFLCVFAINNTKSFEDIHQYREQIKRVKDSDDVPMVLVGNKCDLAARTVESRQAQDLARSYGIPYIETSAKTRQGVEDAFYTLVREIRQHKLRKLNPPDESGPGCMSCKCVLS
Sequence of WT HRAS-BRAF complex (P62937 whole entry, looked up): as the sequence (P62937 whole entry) above

For `CO[C@@H](C)c1ncc(N2CCN(C)CC2)cc1-c1c2c3cc(cc4c3n1CCO4)-c1csc(n1)C[C@H](NC(=O)C1(C)CC1C)C(=O)N1CCC[C@H](N1)C(=O)OCC(C)(C)C2` (stereo partly drawn) [Example 55, N-[(7S,13S)-(20M)-20-[2-[(1S)-1-methoxyethyl]-5-(4-methylpiperazin-1-yl)-3-pyridyl]-17,17-dimethyl-8,14-dioxo-15,24-dioxa-4-thia-9,21,30,31-tetrazahexacyclo[23.3.1.1^2,5.1^9,13.0^19,27.0^21,26]hentriaconta-1 (29),2,5 (31), 19,25,27-hexaen-7-yl]-1,2-dimethyl-cyclopropanecarboxamide], the IC50 at KRAS G12C-BRAF complex stood at 23.6 nM; with AGS cells (KRAS G12D), 69.1 nM; in the data set on SW620 cells (KRAS G12V), 5.6 nM; in [1] it was 48.3 nM; in data set [2], 4.9 nM; in data set [3], 18.1 nM. This compound also came in with an IC50 in data set [4] of 3.1 nM.

As for `CO[C@@H](C)c1ncc(N2CCN(C)CC2)cc1-c1c2c3cc(cc4c3n1CCO4)-c1csc(n1)C[C@H](NC(=O)C1CC1c1ccc(F)cc1)C(=O)N1CCC[C@H](N1)C(=O)OCC(C)(C)C2` (stereo partly drawn) [Example 59, 2-(4-fluorophenyl)-N-[(7S,13S)-(20M)-20-[2-[(1S)-1-methoxyethyl]-5-(4-methylpiperazin-1-yl)-3-pyridyl]-17,17-dimethyl-8,14-dioxo-15,24-dioxa-4-thia-9,21,30,31-tetrazahexacyclo[23.3.1.1^2,5.1^9,13.0^19,27.0^21,26]hentriaconta-1 (29),2,5 (31),19,25,27-hexaen-7-yl]cyclopropanecarboxamide], the IC50 against KRAS G12C-BRAF complex was found to be 16.7 nM; in the data set on AGS cells (KRAS G12D), 87.2 nM; with SW620 cells (KRAS G12V), 7.4 nM; in [1], 33.7 nM; in data set [2] it was 8.8 nM; in [3] it was 21.3 nM. The IC50 in data set [4] is 3 nM.

Turning to `CO[C@@H](C)c1ncc(N2CCN(CCOC3CCOC3)CC2)cc1-c1c2c3cc(cc4c3n1CCC4)-c1csc(n1)C[C@H](NC(=O)[C@H]1[C@H](C)[C@@H]1C)C(=O)N1CCC[C@H](N1)C(=O)OCC(C)(C)C2` (stereo partly drawn) [Example 122, (1r,2R,3S)-N-[(7S,13S)-(20M)-20-[2-[(1S)-1-methoxyethyl]-5-[4-(2-tetrahydrofuran-3-yloxyethyl)piperazin-1-yl]-3-pyridyl]-17,17-dimethyl-8,14-dioxo-15-oxa-4-thia-9,21,30,31-tetrazahexacyclo[23.3.1.1^2,5.1^9,13.0^19,27.0^21,26]hentriaconta-1 (28),2,5 (31), 19,25 (29),26-hexaen-7-yl]-2,3-dimethyl-cyclopropanecarboxamide], the IC50 was found to be 15.1 nM against KRAS G12C-BRAF complex; 3.4 nM with AGS cells (KRAS G12D); 0.5 nM in the data set with SW620 cells (KRAS G12V); 1.8 nM in [1]; 0.6 nM in data set [2]; 3.5 nM in data set [3]. The same compound returned an IC50 in data set [4] of 0.2 nM.

Turning to `CCn1c(-c2cc(N3CCN(C)CC3)cnc2[C@H](C)OC)c2c3cc(ccc31)-c1csc(n1)C[C@H](NC(=O)[C@H]1[C@H](C)[C@@H]1C)C(=O)N1CCC[C@H](N1)C(=O)OCC(C)(C)C2` [Example A252, reference compound], the IC50 was found to be 18 nM against WT KRAS-BRAF complex; 23 nM on WT HRAS-BRAF complex; 11000 nM at hERG potassium channel; 9 nM against KRAS G12V-BRAF complex; 19 nM at WT NRAS-BRAF complex. This compound returned an IC20 against hERG potassium channel (human, CHO cells stably transfected with hERG channel) of 3000 nM. Besides, the clearance in data set [5] (iv, 3 mg/kg) is 37.8 mL/min/kg. Besides, in data set [5] (po, 30 mg/kg), the AUC(0-t) turned out to be 14600 ng·h/mL. Besides, the Cmax in data set [5] (po, 30 mg/kg, po, read-out: Cmax) amounted to 2440 ng/mL. The “Hepatic clearance (Human)” value in the data set with human hepatocytes came out at 9.2 mL/min/kg.
